Reference: US20210238169A1, “PROCESS FOR PREPARING A COMPOUND OF FORMULA (XIII)” (PULMOCIDE LIMITED, priority 2014, published 2021)

Tested on: Aspergillus fumigatus (ATCC 13073)
Test: Extended prophylactic dosing: CFU in lung and GM in BALF and serum
Assay type: in vivo, mice
Protocol: Aspergillus fumigatus (ATCC 13073 [strain: NIH 5233], American Type Culture Collection, Manassas, Va., USA) was grown on Malt agar (Nissui Pharmaceutical, Tokyo, Japan) plates for 6-7 days at RT (24±1° C.). Spores were aseptically dislodged from the agar plates and suspended in sterile distilled water with 0.05% Tween 80 and 0.1% agar. On the day of infection, spore counts were assessed by haemocytometer and the inoculum was adjusted to obtain a concentration of 1.67×10^8 spores mL^−1 of physiological saline.
On day 0, animals were infected with the spore suspension (35 μL intra-nasally).
Test compounds were administered intra-nasally (35 μL of a suspension of 0.08-2.00 mg/mL in physiological saline) once daily, 30 min before infection on day 0 and then on days 1, 2 and 3 (representing prophylactic treatment) or on days 1, 2 and 3 only (representing therapeutic treatment). For extended prophylactic treatment, test compounds (35 μL of a suspension of 0.0032 or 0.016 mg/mL in physiological saline) were administered intra-nasally once daily for seven days; then 30 min before infection on day 0, and thereafter, either on days 1, 2 and 3 after infection, or on day 0 only. The effects of these treatment paradigms were compared with those obtained when treatment was restricted to one day and 30 min before inoculation and then on days 1, 2 and 3 post infection; or reduced still further to one day and 30 min before infection only.
Six hours after the last dose, animals were anesthetised, the trachea was cannulated and BALF was collected. The total number of alveolar cells was determined using a haemocytometer, and the numbers of alveolar macrophages and neutrophils were determined by FACS analysis (EPICS® ALTRA II, Beckman Coulter, Inc., Fullerton, Calif., USA) using anti-mouse MOMA2-FITC (macrophage) or anti-mouse 7/4 (neutrophil), respectively, as previously reported (Kimura et al., 2013). The levels of IFN-γ and IL-17 in BALF, and IL-6 and TNFα in serum were determined using Quantikine® mouse IFN-γ, IL-17, IL-6 or TNF-α ELISA kit (R&D systems, Inc., Minneapolis, Minn., USA) respectively. MDA, an oxidative stress marker, was assayed using OxiSelect® TBARS Assay Kits (MDA Quantitation; Cell Biolabs Inc, San Diego, Calif., USA). Aspergillus GM in serum was determination using Platelia GM-EIA kits (Bio-Rad Laboratories, Redmond, Wash., USA). Cut-off index was calculated by the formula: Cut-off index=OD in sample/OD in cut-off control provided in kit. For tissue fungal load assays, 100 mg of lung tissue was removed aseptically and homogenized in 0.2 mL of 0.1% agar in sterile distilled water. Serially diluted lung homogenates were plated on Malt agar plates (50 μL/plate), and incubated at 24±1° C. for 72 to 96 h. The colonies of A. fumigatus on each plate was counted and the fungal titre presented as CFU per gram of lung tissue.

[1] = days dosed −1, 0, 16 μg/mL intra-nasally
[2] = days dosed −1 to +3, 3.2 μg/mL intra-nasally
[3] = days dosed −1 to +3, 16 μg/mL intra-nasally
[4] = days dosed −7 to 0, 16 μg/mL intra-nasally
[5] = days dosed −7 to +3, 3.2 μg/mL intra-nasally
[6] = days dosed −7 to +3, 16 μg/mL intra-nasally

Structure (SMILES): Cc1cc(N2CCN(c3ccc(C(=O)Nc4ccc(F)cc4)cc3)CC2)ccc1OC[C@@H]1CO[C@@](Cn2cncn2)(c2ccc(F)cc2F)C1 [Compound (I), 4-(4-(4-(((3R,5R)-5-((1H-1,2,4-triazol-1-yl)methyl)-5-(2,4-difluorophenyl)tetrahydrofuran-3-yl)methoxy)-3-methylphenyl)piperazin-1-yl)-N-(4-fluorophenyl)benzamide]
- CFU in lung [1]: 13.1 ± 2.6 /mg of lung
- CFU in lung, % inhibition [1]: 62%
- GM in BALF [1]: 4.5 ± 0.50 COI
- GM in BALF, % inhibition [1]: 12%
- GM in serum [1]: 4.0 ± 0.88 COI
- GM in serum, % inhibition [1]: 7%
- CFU in lung [2]: 9.5 ± 3.3 /mg of lung
- CFU in lung, % inhibition [2]: 73%
- GM in BALF [2]: 2.8 ± 0.71 COI
- GM in BALF, % inhibition [2]: 45%
- GM in serum [2]: 2.2 ± 0.69 COI
- GM in serum, % inhibition [2]: 49%
- CFU in lung [3]: 6.1 ± 2.8 /mg of lung
- CFU in lung, % inhibition [3]: 82%
- GM in BALF [3]: 2.2 ± 0.61 COI
- GM in BALF, % inhibition [3]: 57%
- GM in serum [3]: 1.6 ± 0.41 COI
- GM in serum, % inhibition [3]: 63%
- CFU in lung [4]: 6.7 ± 1.7 /mg of lung
- CFU in lung, % inhibition [4]: 81%
- GM in BALF [4]: 2.3 ± 0.52 COI
- GM in BALF, % inhibition [4]: 55%
- GM in serum [4]: 1.7 ± 0.59 COI
- GM in serum, % inhibition [4]: 60%
- CFU in lung [5]: 8.3 ± 2.0 /mg of lung
- CFU in lung, % inhibition [5]: 76%
- GM in BALF [5]: 2.6 ± 0.36 COI
- GM in BALF, % inhibition [5]: 49%
- GM in serum [5]: 1.8 ± 0.43 COI
- GM in serum, % inhibition [5]: 58%
- CFU in lung [6]: 5.0 ± 2.3 /mg of lung
- CFU in lung, % inhibition [6]: 86%
- GM in BALF [6]: 1.7 ± 0.39 COI
- GM in BALF, % inhibition [6]: 67%
- GM in serum [6]: 1.4 ± 0.20 COI
- GM in serum, % inhibition [6]: 67%
